Experimental findings from US20140227173A1, “CANCER TREATMENT WITH GAMMA-SECRETASE INHIBITORS” (The Johns Hopkins University, priority 2006, published 2014) are described below.

Entries after “also recorded” stand apart in the source; their conditions may differ.

For assay [1], the system named is panel of 10 human pancreatic cancer cell lines. Kind of assay: MTT growth assay. As to conditions: 96 hours; dosages of 2, 5, and 10 μM. The format is cell-based.
For another assay, the system named is D283Med. Briefly: Side population (Hoechst 33342 excretion) flow cytometry. As to conditions: D283Med; 2 μM GSI-18 or verapamil. The format is cell-based. As for the experimental part:
(§1) The ability to excrete Hoechst dye, which defines SP (also known as “side population”) in flow cytometric analyses, is another marker of tumor-initiating CSC in the blood and brain (7, 8, 20). SP was therefore analyzed to obtain a second measure of the effects of Notch on CSC.
(§2) Flow cytometric analysis of S-phase fraction and cell cycle kinetics was performed using a FACSCalibur (Becton Dickinson, San Jose, Calif.) with CELL Quest, version 3.3 software (15). CD133 studies were performed using the same instrument, with antibodies from Miltenyi (Miltenyi Biotec, Auburn, Calif.) according to the manufacturer's instructions. […] Prior to analysis, cells were washed and resuspended in 2 μg/ml PI (Sigma, St. Louis, Mo.). […] To ensure proper identification of SP cells, cells were incubated as above with the addition of 50 μM verapamil (Sigma).

The test system of the next assay is D425Med. The assay is described as above. The format is cell-based. The note with it: D425Med; 2 μM GSI-18 or verapamil. Here is the method: as §1, §2
For assay [2], the system named is DAOY:NICD2. The assay is described as above. Format: cell-based. The note with it: 2 μM GSI-18 or verapamil. As for the experimental part:
as §1, §2

In assay [3] the test system is DAOY. The description is as above. Format: cell-based. As to conditions: DAOY; 2 μM; untreated SP 1.9%. Here is the method:
as §1, §2

Assay [4] concerns DAOY. Briefly: Nestin immunocytochemistry, strongly nestin-positive fraction. The format is cell-based. The note with it: 2 μM, 48 hours.
The subject of assay [5] is DAOY. Kind of assay: Apoptosis by cleaved caspase 3 immunofluorescence in nestin-positive and nestin-negative cells. Format: cell-based. As to conditions: 2 μM, 48 hours.
Another assay deals with Akt. Briefly: Akt phosphorylation and Caspase3 cleavage in GBM neurosphere cells. The format is cell-based. Here is the method:
(A) Increase of cleaved Caspase 3 and loss of Akt phosphorylation is induced by 0.4 uMor higher levels of GSI-18, while overall levels of Akt and GAPDH are unchanged in DAOY medulloblastoma cells. (B) Cell death in 2 uM GSI-18 is reduced in a representative subclone of DAOY expressing activated Akt as compare to vector transfected cells. (C) Loss of Akt phosphorylation and activation of Caspase3 cleavage is induced by 2 μM or higher levels of GSI-18, while overall levels of Akt and GAPDH are unchanged in GBM neurosphere cells.
(§3) It has been shown that the Notch signaling pathway regulates normal stem cells in the Central Neural System (CNS), and that GBMs contain cancer stem cells (CSCs) with higher Notch activity (Cancer Research, 64:7011-21, 2004; Cancer Cell, 9:391-403, 2006). However, it has not been known if Notch pathway blockade could target CSCs in GBM. […] In the present study, we used GBM neurospheres to examine the effects of Notch pathway blockade in GBM. […] Furthermore, overexpression of an active form of Notch2 (NICD2) increases tumor growth in vitro.

The test system of assay [6] is DAOY. Briefly: Xenograft initiation by pretreated cells injected subcutaneously in athymic (nude) mice. Format: in vivo. As for the experimental part:
A clonogenic assay was used to determine whether cells capable of initiating anchorage-independent colonies were depleted by GSI-18. In vehicle-treated DAOY cultures, 2.9% of cells formed large colonies when seeded in soft agar (FIG. 7H). This number dropped to 0.26% when an equal number of viable cells were counted and seeded after 48 hours of treatment with GSI-18, and increased to 7.2% in the presence of constitutive Notch2 activation. Initiation of tumor xenografts was assayed next, a strategy used in several previous studies to examine the presence or absence of cancer stem cells (6-8). DAOY and DAOY:NICD2 cultures were treated with either 2 μM GSI-18 or vehicle alone, and the viable cells remaining after 48 hours counted using Trypan blue. 500,000 viable cells from each group were then injected subcutaneously in athymic (nude) mice. Large xenografts formed at the sites of all 12 control injections. […] To rule out the possibility that cells were alive but moribund following gamma-secretase inhibition, the experiment was repeated with cells counted after a recovery period.

In assay [7] the test system is DAOY:NICD2. Briefly: Tumor engraftment in mice treated intraperitoneally after subcutaneous cell injection. The format is in vivo, athymic nude mice. As to conditions: 0.5 mg i.p. for five consecutive days. As for the experimental part: (§4) FIG. 8G is a graph plotting xenograft volume against number of days following injection of DAOY and DAOY:NIC2D cells in athymic nude mice, which were either treated with vehicle or 0.5 mg i.p. of GSI-18 for 5 consecutive days following subcutaneous tumor injection.
(§5) As a test of the requirement for ongoing Notch activity during tumor engraftment, animals were treated with GSI-18 after subcutaneously injecting DAOY and DAOY:NICD2 cells into their left and right flanks. A treatment group of four mice received intraperitoneal injections containing 0.5 mg GSI-18 in DMSO for five consecutive days, beginning on the day of xenograft initiation, while the control group was treated with vehicle alone.

Assay [8] deals with DAOY. The description is as above. The format is in vivo, athymic nude mice. The note with it: 0.5 mg i.p. in DMSO for five consecutive days from day of xenograft initiation, four mice. As for the experimental part: as §4, §5
The subject of assay [9] is GBM neurosphere line HSR-GBM1a. Kind of assay: Growth of GBM neurospheres in vitro (total cell number). Format: cell-based. As for the experimental part:
(A, B) CD133 is expressed in GBM neurosphere line HSR-GBM1a. (C) The total cell number was decreased upon GSI-18 treatment for 48 h in this line and in the subclones of the line. […] (E) Protein expression of Hes1, a Notch pathway target gene, was reduced upon GSI-18 treatment in GBM neurosphere cells.
as §3

The next assay deals with GBM20913. Kind of assay: Survival of mice bearing intracranial xenografts of pretreated GBM neurosphere cells. The format is in vivo. As to conditions: vs vehicle (DMSO) treated cells.

For the molecule `O=S(=O)(NC1C2CCC1Cc1ccccc1C2)c1cccs1` (stereo not drawn) [GSI-18, [11-endo]-N-(5,6,7,8,9,10-hexahydro-6,9-methanobenzo[α][8]annulen-11-yl)-thiophene-2-sulfonamide], the “in vitro growth measured by MTT assays” value in [1] is recorded as “modest to minimal effects on growth”. For the same molecule, the side population entry in the assay on D283Med and in the assay on D425Med was “ablated” each time. In addition, the “side population under NICD2 expression” value in the assay with DAOY:NICD2 [2] is reported as “protected the SP from GSI-18 exposure”. In addition, in the assay on DAOY [3], the “remaining cells negative for Hoechst dye (side population)” value stood at 0.01%. For the same molecule, the “fold reduction of strongly nestin-positive fraction” value with DAOY [4] (p<0.01) is 4 fold. The “strongly nestin-positive fraction after treatment” value in the assay on DAOY [4] (untreated 10%) worked out at 2.4%. Moreover, the “increase of apoptotic rate in nestin-positive cells (putative CSC)” value with DAOY [5] is listed as “over 10 fold”. Besides, the “levels inducing loss of Akt phosphorylation and activation of Caspase3 cleavage” value in the assay with Akt (GBM neurosphere cells) is ≥ 2 µM. Moreover, the “expression of cleaved caspase 3 and phosphorylated Akt” value in the assay on Akt (GBM neurosphere lines) is “Increased expression of cleaved caspase 3 and reduced expression of phosphorelated Akt”. The “xenograft formation from pretreated cells” value in the assay on DAOY [6] (2 μM, 48 hours pretreatment, 500,000 viable cells injected subcutaneously) is given as “only one very small lesion formed among the four sites”. For the same molecule, the “tumor formation from pretreated cells after recovery” value in the assay with DAOY [6] (two days of treatment, 24 hours recovery in 10% FBS without inhibitor) was “unable to form tumors”. The “tumor development in treated animals” value with DAOY:NICD2 [7] is given as “Tumors also developed”. Besides, the “engraftment in treated animals” value with DAOY [8] was “failed to engraft in three of the four”. For the same molecule, in assay [9] (48 h, HSR-GBM1a and subclones), the total cell number entry is recorded as “decreased”. Besides, in [9] (GBM neurospheres, 2 μM), the “tumor growth in vitro” value was “inhibits tumor growth in vitro”. Besides, in the assay with GBM20913, the “survival of mice with intracranial xenografts from pretreated cells” value is “prolonged survival; also recorded: longer survival”.
